2 compounds from patent publication US12517130B2, “Isoindoline derivatives which bind to an ATP binding site” (NeoPhore Limited, priority 2020, dated 2026) can be followed below.

Structures can show the parent of a compound that is named as a salt.

Assay [1] has as its target T1, recombinant N-terminal MLH1 (residues 15-340) (Homo sapiens, UniProt P40692).
T1 construct: recombinant N-terminal MLH1 (residues 15-340) in assay buffer
T1 sequence (P40692 15-340): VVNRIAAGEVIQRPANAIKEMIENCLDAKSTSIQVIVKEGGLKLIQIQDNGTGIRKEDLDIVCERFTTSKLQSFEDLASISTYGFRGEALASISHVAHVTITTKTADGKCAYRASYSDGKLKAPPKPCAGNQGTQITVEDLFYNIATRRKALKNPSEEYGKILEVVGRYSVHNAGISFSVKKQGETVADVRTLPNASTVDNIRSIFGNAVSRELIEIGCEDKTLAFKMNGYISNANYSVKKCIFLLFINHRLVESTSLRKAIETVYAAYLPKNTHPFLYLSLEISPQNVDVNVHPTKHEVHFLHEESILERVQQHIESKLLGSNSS
As to the kind of experiment: Assay A: Fluorescence Polarisation Assay for MLH1 (displacement of Example 1 probe). The class given is binding. The settings on record: Assay Protocol A; 100 nM N-terminal MLH1, 5 nM Example 1 probe; FIG. 10. How it is done:
Assay A: Fluorescence Polarisation Assay for MLH1
Test compounds, as 10 mM DMSO stocks, were dispensed into a Black Fluotrac 200 384-well medium binding plate (Greiner Bio-One, item number 781076) using a Labcyte Echo acoustic liquid handler. Test compounds were added to wells in columns 1-22 whilst DMSO was added to wells in columns 23 and 24 in order to normalise the plate. 20 μL of a 2× solution (200 nM) of recombinant N-terminal MLH1 (residues 15-340) in assay buffer (25 mM HEPES, pH 7.5, 250 mM NaCl, 10 mM MgCl2, 0.01% Triton X-100, 5 mM Dithiothreitol) was added to all wells in columns 1-23 and 20 μL assay buffer was added to all wells in column 24 using a MultiDrop Combi (ThermoFisher). […] Compound plates were centrifuged for 1 minute at 250×g for 1 minute and were incubated at room temperature for 1 hour before being read on a PheraStar FSX (fitted with 384-well aperture spoon and 590 675 675 FP optic module). The gain and focus were adjusted before each plate was read so that the polarisation of a no enzyme control (column 24) was equal to 35 mP. […]
On the technique in general: Fluorescence polarisation rises when a labelled molecule tumbles more slowly, as on binding a larger partner.

In assay [2] the target is T2, recombinant N-terminal PMS2 (residues 1-365) (Homo sapiens, UniProt P54278).
T2 construct: recombinant N-terminal PMS2 (residues 1-365) in assay buffer
T2 sequence (P54278 1-365): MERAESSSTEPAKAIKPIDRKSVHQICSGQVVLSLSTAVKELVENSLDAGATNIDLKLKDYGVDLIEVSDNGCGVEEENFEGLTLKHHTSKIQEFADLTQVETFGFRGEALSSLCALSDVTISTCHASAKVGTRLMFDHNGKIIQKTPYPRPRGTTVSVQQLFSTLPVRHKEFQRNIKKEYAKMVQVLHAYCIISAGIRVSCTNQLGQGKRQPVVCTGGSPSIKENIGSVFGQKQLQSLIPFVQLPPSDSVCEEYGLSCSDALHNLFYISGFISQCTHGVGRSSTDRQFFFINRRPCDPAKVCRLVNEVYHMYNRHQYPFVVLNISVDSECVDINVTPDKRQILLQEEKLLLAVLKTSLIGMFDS
As to the kind of experiment: Assay C: Fluorescence Polarisation Assay for PMS2 (displacement of Example 5 probe). The class given is binding. Conditions: Assay Protocol C; 10 nM N-terminal PMS2, 5 nM Example 5 probe; FIG. 11. How it is done:
Assay C: Fluorescence Polarisation Assay for PMS2
Test compounds, as 10 mM DMSO stocks, were dispensed into a Black Fluotrac 200 384 well medium binding plate (Greiner Bio-One, item number 781076) using a Labcyte Echo acoustic liquid handler. For single point screening, test compounds were added to wells in columns 1-22 whilst DMSO was added to wells in columns 23 and 24 in order to normalise the plate. For potency determination, serial dilutions of test compounds were added to wells in columns 3-22 and DMSO volume was normalised across the plate.
20 μL of a 2× solution (20 nM) of recombinant N-terminal PMS2 (residues 1-365) in assay buffer (25 mM HEPES, pH 7.5, 250 mM NaCl, 10 mM MgCl2, 0.01% Triton X-100, 5 mM Dithiothreitol) was added to all wells in columns 2-23 for potency determination or columns 1-23 for single point screening. 20 μL assay buffer was added to all wells in columns 1 and 24 (column 24 only for single point screening) using a MultiDrop Combi (ThermoFisher). […]
Compound plates were centrifuged for 1 minute at 250×g and were incubated at room temperature for 1 hour before being read on a PheraStar FSX (fitted with 384-well aperture spoon and 540 590 590 FP optic module). The gain and focus were adjusted before each plate was read so that the polarisation of a no enzyme control (column 24) was equal to 35 mP. […]

Assay [3] concerns the target T3, N-terminal domain of MLH1 (Homo sapiens, UniProt P40692).
T3 construct: by surface plasmon resonance to the N-terminal domain of MLH1
T3 sequence (P40692 15-340 limits assumed): T1 sequence (P40692 15-340)
The assay is described as follows: Surface plasmon resonance binding to N-terminal domain of MLH1. An excerpt:
(§1) These probes are therefore unsuitable for use as fluorescence polarisation screening tools.
On the technique in general: In SPR one partner is held on a chip, and binding of the other changes the refractive index at the surface.

The target of another assay is T4, MLH1 (Homo sapiens, UniProt P40692).
T4 sequence (P40692 15-340 limits assumed): T1 sequence (P40692 15-340)
As to the kind of experiment: Fluorescence polarisation assay of commercially available ATP-derived fluorescent probes, according to the type of protocol exemplified. The settings on record: substance used as the fluorescent probe. Type of assay: binding. As to the method: as §1
An 11 point 1 in 2 serial dilution of protein (either recombinant N-terminal PMS2 (residues 1-365) or recombinant N-terminal MLH1 (residues 15-340)) in assay buffer (25 mM HEPES, pH 7.5, 250 mM NaCl, 10 mM MgCl2, 0.01% Triton X-100, 5 mM Dithiothreitol) was constructed in a clear polypropylene plate (Greiner Bio-One, item number 784201). The top concentration of the serial dilution was 2 μM. The 12th concentration point was buffer only (no protein control).
The serial dilution was used as the 2× protein and 20 μL was added to a Black Fluotrac 200 384-well medium binding plate (Greiner Bio-One, item number 781076). Plates were centrifuged for 1 minute at 250×g and were incubated at room temperature for 30 minutes prior to the addition of 20 μL of 2× (either 5 nM or 2 nM) of probe in assay buffer (prepared from a 100 μM DMSO stock) with a MultiDrop Combi (ThermoFisher).
Compound plates were centrifuged for 1 minute at 250×g for 1 minute and were incubated at room temperature for 1 hour before being read on a PheraStar FSX (fitted with 384-well aperture spoon and appropriate FP module). The gain and focus were adjusted before each plate was read so that the polarisation of the no protein control was equal to 35 mP. Data was plotted and analysed in GraphPad Prism 8.1.0 (FIGS. 6-9).

A word on the IC50: it is the concentration that inhibits the measured activity by half. In the case of `CC(C)c1cc(C(=O)N2Cc3ccc(CN4CCNCC4)cc3C2)c(O)cc1O` [compound AB, (2,4-dihydroxy-5-isopropylphenyl)(5-(piperazin-1-ylmethyl)isoindolin-2-yl)methanone hydrochloride], the IC50 in assay [1] was found to be 10.7 µM; in assay [2], 179 nM.

With `CC1=CC(C)=[N+]2C1=Cc1ccc(CNC(=O)CSP(=O)(O)OP(=O)(O)OP(=O)(O)OC[C@H]3O[C@@H](n4cnc5c(N)ncnc54)[C@H](O)[C@@H]3O)n1[B-]2(F)F` [BODIPY-FL-ATP-gamma-S], in assay [3], the “binding by surface plasmon resonance” value is “very weak binding”. Further, the “signal in fluorescence polarisation assay” value on MLH1 was “no signal”.
